From US6316409A, “Modified ligands of calcium-dependent binding proteins” (Medical Research Council, priority 1996, dated 2001) come the findings set out here.

The target in experiment [1] is T1, bovine brain calmodulin (Bos taurus, UniProt P62157).
T1 construct: Complexes between calmodulin from bovine brain (1 μM, Sigma); purchased Sigma; host or cells: bovine brain (tissue-derived)
Description: stopped-flow measurement of kisom of calmodulin-binding peptides. The note with it: changes in tryptophan fluorescence. From the text:
It has been shown by Torok and Trentham (1994) that smooth muscle MLCK-derived peptides bind to calmodulin with a biphasic kinetic according to the scheme: [drawing 1]
in which P is the peptide, C is calmodulin, P-C is the first complex formed on association of P and C, which then undergoes a conformational isomerisation to P-C*.
(§1) For a kinetic and thermodynamic characterisation of the binding of the peptides of the present invention to bovine brain calmodulin, we have measured the kinetic isomerisation, association, and dissociation constants from which dissociation constants can be derived.
kisom constants have been measured by stopped-flow, detecting changes in tryptophan fluorescence for all the peptides except 3 (SEQ ID NO:4), in which the tryptophan is replaced by alanine.

In experiment [2] the target is T1, bovine brain calmodulin. Description: BIAcore surface plasmon resonance, kon and koff of calmodulin binding to biotinylated peptides. Particulars: for koff / kon / increase in kon with respect to the wild-type peptide 1: BIAcore; for koff: read-out: koff (s^-1)^B; for kon: read-out: kon (s^-1 M^-1)^B.
Excerpt: as §1
koff =k-1·k-2 /(k+2 +k-2)
Real-time interaction analysis by surface plasmon resonance on a BIAcore instrument (Jonsson et al., 1991) was used to determine kon and koff constants. Biotinylated peptides 1-17 were bound to commercially available streptavidin-coated microsensor chips (Pharmacia Biosensor), in order to achieve a surface capacity of 100-200 surface plasmon resonance units of calmodulin bound. Different concentrations of calmodulin (5, 10, 20, 50 and 100 nM in the order of FIG. 2) were injected and allowed to associate with the peptides. Regeneration of the surface was achieved by injection of 5 μl TBS+[…] which dissociates the calmodulin-peptide complex.
Background: In SPR one partner is held on a chip, and binding of the other changes the refractive index at the surface.

Experiment [3] addresses calmodulin (Bos taurus, UniProt P62157). Description: koff by competition experiments, native PAGE of fluorescein-labelled peptide/calmodulin complexes. Also on record: Complexes between calmodulin from bovine brain (1 μM, Sigma); purchased Sigma; host or cells: bovine brain (tissue-derived). In kind it is binding, bovine. Particulars: for dissociation from calmodulin in competition with excess unlabelled peptide, in words: FIG. 3; for koff: competition with 30-fold excess unlabelled peptide, room temperature, gel buffer, read-out: koff (s^-1)^C. Here is the method: Complexes between calmodulin from bovine brain (1 μM, Sigma) and fluorescein-labelled sMLCK-derived peptides (as described in Table 1 (SEQ ID NOS:2-18)) were prepared in gel buffer (25% gel mix [4 g sucrose+1 mg bromophenol blue in water to give a 10 ml solution]+75% TBSC [50 mM TRIS pH 7.4, […]+50 μM CaCl2)] and run on a 15% native PAGE gel (5 ml 30% acrylamide-bisacrylamide solution+4.5 ml water+0.5 ml 3M Tris, pH 8.8, +1 μl 1M CaCl2 polymerised with 30 μl 25% ammonium persulphate and 9 μl TEMED) using 14.4 g/l glycine+3 g/l Tris-base+0.1 mM CaCl2 as running buffer. Peptides were labelled either with iodoacetamido fluorescein (Molecular Probes) or with iodoacetamido-LC-biotin (Pierce) essentially as previously described by Neri et al., (1995). In these conditions, the fluorescence of the positively-charged labelled peptides can be detected only if they form a stable complex with calmodulin.
In order to obtain an independent experimental confirmation if the BIAcore results, koff constants for peptides 1-17 towards calmodulin were determined by competition experiments. 30 nM fluorescein-labelled peptide/calmodulin complexes in gel buffer were competed at room temperature for different times with 30-fold excess of unlabelled peptide. The resulting mixtures were run on native PAGE gels and imaged by LUANA as described above. The bands in the image obtained were integrated using the LUANA software (Neri et al., 1996) and the corresponding intersities plotted versus time and fitted with a single exponential, from which koff constants were derived. In order to normalise band intensities against pipetting errors, the samples contained 6 nM free fluorescein which ran with the front. The fluorescein bands were integrated and used to normalise the calmodulin/fluorescent peptide complex band intensity. The results of competitions for peptides 1, 2, 3, 6, 9, and 14 are shown in this FIG. 3. Incubation time in minutes is indicated under the lanes.
The volumes of the bands were plotted versus competition time and fitted to a single exponential, from which koff values were derived.
The fastest competitions (peptides 1-4, 9 and 13, SEQ ID NOS:2-5,10, and 14) were over by the time the calmodulin/fluorescent peptide complex entered the gel (approximately 5-10 minutes from pipetting a molar excess of unlabelled peptide; FIG. 3), from which a condition on the off-rate constant koff >1×10^-3 s^-1 was derived. Even for these fast off-rates, complexes can be detected by native polyacrylamide gel electrophoresis because of the well known gel "cage effect" (Fried and Crothers, 1981; Garner and Revzin, 1981).

Entries after “also recorded” stand apart in the source; their conditions may differ. Peptide text beside a SMILES is read from it.

By koff is commonly meant a measure of how fast the partners let go of each other. For orientation: kon means the rate constant with which the complex forms. As for `CC[C@H](C)[C@H](NC(=O)[C@H](Cc1ccccc1)NC(=O)[C@H](CC(N)=O)NC(=O)[C@H](CCCCN)NC(=O)[C@H](CCCCN)NC(=O)[C@H](Cc1c[nH]c2ccccc12)NC(=O)[C@H](CCCNC(=N)N)NC(=O)[C@H](C)NC(=O)[C@H](C)NC(=O)[C@H](C)NC(=O)[C@@H](N)CS)C(=O)N[C@@H](C)C(=O)N[C@H](C(=O)N[C@@H](CO)C(=O)N[C@@H](C)C(=O)N[C@@H](C)C(=O)N[C@@H](CC(N)=O)C(=O)N[C@@H](CCCNC(=N)N)C(=O)N[C@@H](Cc1ccccc1)C(=O)N[C@@H](CCCCN)C(=O)N[C@@H](CCCCN)C(=O)N[C@H](C(=O)N[C@@H](CO)C(N)=O)[C@@H](C)CC)C(C)C` [Peptide 1, CAAA-RWKKNFIAVSAANRFKKIS-CONH2] (H-CAAARWKKNFIAVSAANRFKKIS-NH2; N-terminus assumed), the “kisom. (s^-1)^A” value in experiment [1] was 1.9 (10.7) × 10^-1 s^-1. Also, in experiment [2], the koff is 0.0024 s⁻¹ and the kon is 650000 M⁻¹ s⁻¹. In experiment [3], the “dissociation from calmodulin in competition with excess unlabelled peptide, in words” value (“dissociation from calmodulin” for short) is “dissociated from calmodulin in a few minutes” and the off-rate (koff) is no less than 0.001 s⁻¹.

With `CC[C@H](C)[C@H](NC(=O)[C@H](Cc1ccccc1)NC(=O)[C@H](CC(N)=O)NC(=O)[C@H](CCCCN)NC(=O)[C@H](CCCCN)NC(=O)[C@H](Cc1c[nH]c2ccccc12)NC(=O)[C@H](C)NC(=O)[C@H](C)NC(=O)[C@H](C)NC(=O)[C@H](C)NC(=O)[C@@H](N)CS)C(=O)N[C@@H](C)C(=O)N[C@H](C(=O)N[C@@H](CO)C(=O)N[C@@H](C)C(=O)N[C@@H](C)C(=O)N[C@@H](CC(N)=O)C(=O)N[C@@H](CCCNC(=N)N)C(=O)N[C@@H](Cc1ccccc1)C(=O)N[C@@H](CCCCN)C(=O)N[C@@H](CCCCN)C(=O)N[C@H](C(=O)N[C@@H](CO)C(N)=O)[C@@H](C)CC)C(C)C` [Peptide 2] (H-CAAAAWKKNFIAVSAANRFKKIS-NH2; N-terminus assumed), the “kisom. (s^-1)^A” value in experiment [1] is listed as 1.2 (10.5) × 10^-1 s^-1. For the same compound, in experiment [2], the “increase in kon with respect to the wild-type peptide 1” value is 4-5 fold, the dissociation rate constant (koff) worked out at 0.0015 s⁻¹ and the kon was 3e+06 M⁻¹ s⁻¹. Also, in experiment [3], the “dissociation from calmodulin” value was “dissociated from calmodulin in a few minutes” and the koff is no less than 0.001 s⁻¹.

On to `CC[C@H](C)[C@H](NC(=O)[C@H](Cc1ccccc1)NC(=O)[C@H](CC(N)=O)NC(=O)[C@H](CCCCN)NC(=O)[C@H](CCCCN)NC(=O)[C@H](C)NC(=O)[C@H](CCCNC(=N)N)NC(=O)[C@H](C)NC(=O)[C@H](C)NC(=O)[C@H](C)NC(=O)[C@@H](N)CS)C(=O)N[C@@H](C)C(=O)N[C@H](C(=O)N[C@@H](CO)C(=O)N[C@@H](C)C(=O)N[C@@H](C)C(=O)N[C@@H](CC(N)=O)C(=O)N[C@@H](CCCNC(=N)N)C(=O)N[C@@H](Cc1ccccc1)C(=O)N[C@@H](CCCCN)C(=O)N[C@@H](CCCCN)C(=O)N[C@H](C(=O)N[C@@H](CO)C(N)=O)[C@@H](C)CC)C(C)C` [Peptide 3] (H-CAAARAKKNFIAVSAANRFKKIS-NH2; N-terminus assumed), for which, in experiment [2], the “increase in kon with respect to the wild-type peptide 1” value is listed as 4-5 fold, the koff turned out to be 0.005 s⁻¹ and the kon is 3.2e+06 M⁻¹ s⁻¹. Moreover, in experiment [3], the “dissociation from calmodulin” value was “dissociated from calmodulin in a few minutes” and the koff is no less than 0.001 s⁻¹.

As for `CC[C@H](C)[C@H](NC(=O)[C@H](Cc1ccccc1)NC(=O)[C@H](CC(N)=O)NC(=O)[C@H](CCCCN)NC(=O)[C@H](C)NC(=O)[C@H](Cc1c[nH]c2ccccc12)NC(=O)[C@H](CCCNC(=N)N)NC(=O)[C@H](C)NC(=O)[C@H](C)NC(=O)[C@H](C)NC(=O)[C@@H](N)CS)C(=O)N[C@@H](C)C(=O)N[C@H](C(=O)N[C@@H](CO)C(=O)N[C@@H](C)C(=O)N[C@@H](C)C(=O)N[C@@H](CC(N)=O)C(=O)N[C@@H](CCCNC(=N)N)C(=O)N[C@@H](Cc1ccccc1)C(=O)N[C@@H](CCCCN)C(=O)N[C@@H](CCCCN)C(=O)N[C@H](C(=O)N[C@@H](CO)C(N)=O)[C@@H](C)CC)C(C)C` [Peptide 4] (H-CAAARWAKNFIAVSAANRFKKIS-NH2; N-terminus assumed), the “kisom. (s^-1)^A” value in experiment [1] is recorded as 2.4 (10.6) × 10^-1 s^-1. Also, in experiment [2], the koff was 0.003 s⁻¹ and the on-rate constant (kon) came out at 1.3e+06 M⁻¹ s⁻¹. In addition, the off-rate (koff) in experiment [3] was no less than 0.001 s⁻¹.

For `CC[C@H](C)[C@H](NC(=O)[C@H](Cc1ccccc1)NC(=O)[C@H](CC(N)=O)NC(=O)[C@H](C)NC(=O)[C@H](CCCCN)NC(=O)[C@H](Cc1c[nH]c2ccccc12)NC(=O)[C@H](CCCNC(=N)N)NC(=O)[C@H](C)NC(=O)[C@H](C)NC(=O)[C@H](C)NC(=O)[C@@H](N)CS)C(=O)N[C@@H](C)C(=O)N[C@H](C(=O)N[C@@H](CO)C(=O)N[C@@H](C)C(=O)N[C@@H](C)C(=O)N[C@@H](CC(N)=O)C(=O)N[C@@H](CCCNC(=N)N)C(=O)N[C@@H](Cc1ccccc1)C(=O)N[C@@H](CCCCN)C(=O)N[C@@H](CCCCN)C(=O)N[C@H](C(=O)N[C@@H](CO)C(N)=O)[C@@H](C)CC)C(C)C` [Peptide 5] (H-CAAARWKANFIAVSAANRFKKIS-NH2; N-terminus assumed), the “kisom. (s^-1)^A” value in experiment [1] is recorded as 7.4 (11.0) × 10^-2 s^-1. Further, in experiment [2], the off-rate constant (koff) is 0.00029 s⁻¹ and the on-rate constant (kon) was 1.1e+06 M⁻¹ s⁻¹. Further, the off-rate constant (koff) in experiment [3] was 0.00021 s⁻¹.

In the case of `CC[C@H](C)[C@H](NC(=O)[C@H](Cc1ccccc1)NC(=O)[C@H](C)NC(=O)[C@H](CCCCN)NC(=O)[C@H](CCCCN)NC(=O)[C@H](Cc1c[nH]c2ccccc12)NC(=O)[C@H](CCCNC(=N)N)NC(=O)[C@H](C)NC(=O)[C@H](C)NC(=O)[C@H](C)NC(=O)[C@@H](N)CS)C(=O)N[C@@H](C)C(=O)N[C@H](C(=O)N[C@@H](CO)C(=O)N[C@@H](C)C(=O)N[C@@H](C)C(=O)N[C@@H](CC(N)=O)C(=O)N[C@@H](CCCNC(=N)N)C(=O)N[C@@H](Cc1ccccc1)C(=O)N[C@@H](CCCCN)C(=O)N[C@@H](CCCCN)C(=O)N[C@H](C(=O)N[C@@H](CO)C(N)=O)[C@@H](C)CC)C(C)C` [Peptide 6] (H-CAAARWKKAFIAVSAANRFKKIS-NH2; N-terminus assumed), the “kisom. (s^-1)^A” value in experiment [1] is given as 1.8 (10.9) × 10^-1 s^-1. Besides, in experiment [2], the “improvement of koff with respect to wild type, in words” value was “largest improvements”; the koff was no less than 0.0001 s⁻¹; the association rate constant (kon) is 980000 M⁻¹ s⁻¹. In addition, the “improvement in Kd / affinity for calmodulin over the wild type peptide, in words” value in experiment [2] (Table 1) is recorded as “greatest improvement in affinity; also recorded: greatest improvement in Kd”. In experiment [3], the “dissociation from calmodulin” value is given as “hardly competed by an excess of unlabelled peptide after 1000 minutes” and the koff came out at 2.2e-06 s⁻¹.

For `CC[C@H](C)[C@H](NC(=O)[C@H](C)NC(=O)[C@H](CC(N)=O)NC(=O)[C@H](CCCCN)NC(=O)[C@H](CCCCN)NC(=O)[C@H](Cc1c[nH]c2ccccc12)NC(=O)[C@H](CCCNC(=N)N)NC(=O)[C@H](C)NC(=O)[C@H](C)NC(=O)[C@H](C)NC(=O)[C@@H](N)CS)C(=O)N[C@@H](C)C(=O)N[C@H](C(=O)N[C@@H](CO)C(=O)N[C@@H](C)C(=O)N[C@@H](C)C(=O)N[C@@H](CC(N)=O)C(=O)N[C@@H](CCCNC(=N)N)C(=O)N[C@@H](Cc1ccccc1)C(=O)N[C@@H](CCCCN)C(=O)N[C@@H](CCCCN)C(=O)N[C@H](C(=O)N[C@@H](CO)C(N)=O)[C@@H](C)CC)C(C)C` [Peptide 7] (H-CAAARWKKNAIAVSAANRFKKIS-NH2; N-terminus assumed), the “kisom. (s^-1)^A” value in experiment [1] is given as 2.5 (10.7) × 10^-1 s^-1. For the same compound, in experiment [2], the koff came to 0.00039 s⁻¹ and the kon turned out to be 900000 M⁻¹ s⁻¹. For the same compound, the off-rate constant (koff) in experiment [3] was 0.0006 s⁻¹.
